Measured values reported in patent publication US12678509B2, “Inhibitor of apoptosis (IAP) protein antagonists” (Sanford Burnham Prebys Medical Discovery Institute, priority 2019, dated 2026).

Experiments:
[1] = test system: latently infected cell line Jurkat 2D10; assay: HIV Jurkat 2D10 cells GFP+ assay (reversal of HIV latency); type: cell-based; settings: Homo sapiens, Jurkat, 48 h, read-out: Jurkat 2D10 GFP+ EC50
Method: Several compounds (Table 5) were tested for their efficacy in the reversal of HIV latency in the latently infected cell line Jurkat 2D10. Jurkat 2D10 cells were treated with different doses of the compounds, or one of the following compounds: BV-6, SM-164, Birinapant, LCL-161, GDC-0152, AT-406 for 48 hours. Reversal of HW latency was evaluated by analyzing GFP expression using flow cytometry. Induction of GFP expression was compared to baseline GFP levels detected in the absence of treatment.

SKOV-3 = assay: Cell viability (CellTiter-Glo), 48 hrs; type: cell-based; settings: Homo sapiens, SK-OV-3, 48 h, read-out: SKOV-3 Viability 48 h IC50
Method: One thousand seven hundred cells per well were plated in a 384 well plate and incubated overnight at 37° C./5% CO2. The following day, compounds in 10-fold dilutions were added to the plates and the plates returned to the incubator for 48 hrs. 48 hrs later, plates were removed to the bench and 20 μL CellTiter-Glo reagent was added to each well and the plates were read for luminescence on a Spark® multimode microplate reader (Tecan). Data were fit using PRISM to a nonlinear regression curve to determine the IC50 of the compounds.

NB-4 = assay: Cell viability (CellTiter-Glo); type: cell-based, Human; settings: Homo sapiens, NB-4, 72 h, read-out: NB-4 Viability 72 h IC50
Method: The compound 18a was tested in 16 different cell lines. For 6-day compound treatment 1700 cells per well were plated in a 384-well plate (Corning #781098) and incubated overnight at 37° C./5% CO2. […] Afterwards, 20 μL CellTiter-Glo reagent (Promega, #G7570) was added to each well outside of the incubator and the plates were read for luminescence on a Spark® multimode microplate reader (Tecan). Data was fit in GraphPad Prism 8 to a nonlinear regression curve to determine the IC50 of the compounds. […]

[2] = Pharmacokinetic study in mice, snapshot PK; type: in vivo; settings: female, C57BL/6J, mouse, plasma, ip, one hour after i.p. injection of 10 mg/kg
Method: (§1) All animal procedures were approved by the Sanford Burnham Prebys Medical Discovery Institute Institutional Animal Care and Use Committee and were performed according to the NIH guidelines for the Care and Use of Laboratory Animals. Adult female C57BL/6J were purchased from JAX laboratories and housed with free access to food and water on a 12 h light/dark cycle. Compounds were formulated in 5% DMSO, 10% Tween-80, and 85% dH2O and injected intraperitoneally (i.p.) into mice at doses of 10 mg/kg. For snapshot PK analysis, blood samples were collected retro-orbitally one hour after injection and for the time course PK study, blood samples were collected at 15 min, 30 min, 1 h, 2 h, 4 h, 6 h, 24 h time points. For the blood samples plasma was separated by centrifugation. Plasma samples were extracted with acetonitrile:water 4:1 with 0.1% formic acid containing indometacin as an internal standard. Samples were centrifuged and supernatants were diluted with acetonitrile:water and analyzed via LC-MS/MS on a Shimadzu Nexera X2 HPLC coupled to an AB Sciex 6500 QTRAP.
Plasma exposure of selected compounds at 1 h compared.
Plasma levels of parent compound determined one hour after i.p. injection of 10 mg/kg

MOLM 13 = assay: Cell viability (CellTiter-Glo), 6-day compound treatment; type: cell-based, Human; settings: Homo sapiens, MOLM-13, 144 h, read-out: MOLM 13 Viability 6 d IC50
Method: The compound 18a was tested in 16 different cell lines. For 6-day compound treatment 1700 cells per well were plated in a 384-well plate (Corning #781098) and incubated overnight at 37° C./5% CO2. The following day, compounds in 10-fold dilutions were added to the plates and the plates were incubated for 6 days. Afterwards, 20 μL CellTiter-Glo reagent (Promega, #G7570) was added to each well outside of the incubator and the plates were read for luminescence on a Spark® multimode microplate reader (Tecan). Data was fit in GraphPad Prism 8 to a nonlinear regression curve to determine the IC50 of the compounds. […]

BIR3 domain of XIAP = BIR3 domain of XIAP (Homo sapiens, UniProt P98170); assay: Fluorescence polarization assay; type: binding; settings: SMAC-FITC probe, Ki calculated from IC50
Method: (§2) Binding of compounds to ML-IAP and BIR3 domain of cIAP1, cIAP2 and XIAP was determined by fluorescence polarization. Assay buffer was 100 mM KH2PO4 at pH 7.5, 50 μM ZnSO4, 1 mM TCEP (Tris(2-carboxyethyl)phosphine hydrochloride) and 50 nM SMAC-FITC probe (AbuRPF-K(5-Fam)-NH2) as described by Z. Nikolovska-Coleska et al.^9. cIAP1 and XIAP were present at 800 nM while cIAP2 and MLIAP were present at 1.5 μM. Compounds in 3-fold dilutions were added to the plates ranging from 30 μM to 1.5 nM. Assays were run in 384-well black plates read (Greiner Bio-One #784076) in an Analyst in fluorescence polarization mode with excitation at 485 nm and emission at 535 nm. Data was fit to a nonlinear regression curve in GraphPad Prism 8 to determine the IC50 values of the compounds. Ki's were then calculated from the IC50 values using equation: Ki=[I]50/([L]50/Kd+[P]0/Kd+1) formulated by Z. Nikolovska-Coleska et al.

ML-IAP = target: T1, ML-IAP (Homo sapiens, UniProt Q96CA5); assay: Fluorescence polarization assay; type: binding; settings: SMAC-FITC probe, Ki calculated from IC50
T1 sequence (Q96CA5 1-298): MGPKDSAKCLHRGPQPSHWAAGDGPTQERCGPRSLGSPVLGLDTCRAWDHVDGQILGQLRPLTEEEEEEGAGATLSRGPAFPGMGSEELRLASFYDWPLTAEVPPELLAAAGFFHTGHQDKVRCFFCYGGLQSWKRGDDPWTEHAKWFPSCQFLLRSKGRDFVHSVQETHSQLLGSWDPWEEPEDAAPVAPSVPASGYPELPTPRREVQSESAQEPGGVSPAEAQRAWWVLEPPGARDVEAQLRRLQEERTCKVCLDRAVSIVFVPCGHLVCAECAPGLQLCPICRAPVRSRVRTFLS
Method: as §2

BIR3 domain of cIAP2 = BIR3 domain of cIAP2 (Homo sapiens, UniProt Q13489); assay: Fluorescence polarization assay; type: binding; settings: SMAC-FITC probe, Ki calculated from IC50
Method: as §2

BIR3 domain of cIAP1 = BIR3 domain of cIAP1 (Homo sapiens, UniProt Q13490); assay: Fluorescence polarization assay; type: binding; settings: SMAC-FITC probe, Ki calculated from IC50
Method: as §2

AML-SH-065 = assay: Cell viability in patient derived AML samples (CellTiterGlo, 72 h); type: cell-based, human; settings: for IC50: Homo sapiens, 72 h, read-out: AML-SH-065 IC50; for AML-SH-065 Efficacy: patient derived AML sample AML-SH-065, 72 h, cell viability at max. concentration
Method: (§3) Patient AML samples were gathered (under IRB 13-6180) from Scripps MD Anderson, La Jolla, CA Fresh blood samples were subjected to gradient density centrifugation with Ficoll-Paque™ PLUS (17-1440-02, GE Healthcare) and peripheral blood mononuclear cells purified as per manufacturer's protocol.
(§4) 75 nL of 1000× serially diluted IAP inhibitors were spotted in triplicate onto 384-well tissue culture treated plates (Greiner) using a Labcyte Echo acoustic dispensing device. Patient-derived AML cells were maintained in mTeSR1^+1× supplements (Stemcell Technologies) and penicillin/streptomycin/L-glutamine (Omega Scientific Inc.) and Fungizone (HyClone). 25 μL of cell dilution were plated into 384-well plate containing the drugs and incubated for 72 h. Cell viability was assessed by adding 25 μL CellTiterGlo (Promega Corp.) on a Synergy 2 plate reader with Gen5 software (Biotek). % viability was calculated by normalizing luminescence to vehicle only controls (DMSO) in Microsoft Excel and plotted using GraphPad Prism 8. The IC50 values were calculated using log(inhibitor) vs. response—Variable slope (four parameters) equation. (FIG. 6)

AML-SH-074 = assay: as above; type: cell-based, human; settings: for IC50: Homo sapiens, 72 h, read-out: AML-SH-074 IC50; for AML-SH-074 Efficacy: patient derived AML sample AML-SH-074, 72 h, cell viability at max. concentration
Method: as §3, §4

AML-SH-075 = assay: as above; type: cell-based, human; settings: for IC50: Homo sapiens, 72 h, read-out: AML-SH-075 IC50; for AML-SH-075 Efficacy: patient derived AML sample AML-SH-075, 72 h, cell viability at max. concentration
Method: as §3, §4

[3] = Pharmacokinetic study in mice, time course PK; type: in vivo; settings: female, C57BL/6J, mouse, IP dose 10 mg/kg, plasma
Method: as §1
In vivo pharmacokinetic data for compound 18m in mice. Compound was formulated in 5% DMSO, 10% Tween 80 and water and administered by intraperitoneal injection.

Chain of BIR3 domain of cIAP1 (Q13490 253-363 limits assumed): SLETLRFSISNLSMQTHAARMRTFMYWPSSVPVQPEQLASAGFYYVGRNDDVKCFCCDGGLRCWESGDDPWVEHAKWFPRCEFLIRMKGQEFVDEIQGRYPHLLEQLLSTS
Chain of BIR3 domain of cIAP2 (Q13489 238-349 limits assumed): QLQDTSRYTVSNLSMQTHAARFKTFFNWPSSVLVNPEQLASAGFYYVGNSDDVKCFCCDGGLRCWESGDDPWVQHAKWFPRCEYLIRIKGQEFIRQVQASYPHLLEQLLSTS
Chain of BIR3 domain of XIAP (P98170 241-356 limits assumed): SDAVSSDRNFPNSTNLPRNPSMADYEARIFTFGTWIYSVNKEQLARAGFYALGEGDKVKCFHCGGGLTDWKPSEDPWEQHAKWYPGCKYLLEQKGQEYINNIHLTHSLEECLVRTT

CN[C@@H](C)C(=O)N[C@H]1CCS[C@H]2CC(C)(C)[C@@H](C(=O)N[C@H]3c4ccccc4C[C@H]3OCC#Cc3ccc(CO[C@@H]4Cc5ccccc5[C@@H]4NC(=O)[C@H]4N5C(=O)[C@@H](NC(=O)[C@H](C)NC)CCS[C@H]5CC4(C)C)cc3)N2C1=O [Compound 18e, (2S)-1-{[(4S,7S,9aS)-7-{[(1S,2R)-2-({3-[4-({[(1S,2R)-1-({[(4S,7S,9aS)-8,8-Dimethyl-4-{[(2S)-2-(methylammonio)propanoyl]amino}-5-oxooctahydropyrrolo[2,1-b][1,3]thiazepin-7-yl]carbonyl}amino)-2,3-dihydro-1H-inden-2-yl]oxy}methyl)phenyl]prop-2-ynyl}oxy)-2,3-dihydro-1H-inden-1-yl]carbamoyl}-8,8-dimethyl-5-oxooctahydropyrrolo[2,1-b][1,3]thiazepin-4-yl]amino}-N-methyl-1-oxopropan-2-ammonium dichloride]
EC50 [1]: < 1 nM
IC50 (SKOV-3): < 10 nM
IC50 (NB-4): 10 to 100 nM
concentration at 1 h [2]: 6.2 µM
IC50 (MOLM 13): 100 to 1000 nM
Ki (BIR3 domain of XIAP): ≤ 50 nM
Ki (ML-IAP): 100 to 200 nM
Ki (BIR3 domain of cIAP2): 100 to 200 nM
Ki (BIR3 domain of cIAP1): 50 to 100 nM
IC50 (AML-SH-065): 10 to 100 nM
AML-SH-065 Efficacy (AML-SH-065): I (I < 10%)
IC50 (AML-SH-074): 100 to 1000 nM
AML-SH-074 Efficacy (AML-SH-074): I (I < 10%)
IC50 (AML-SH-075): 1000 to 10000 nM
AML-SH-075 Efficacy (AML-SH-075): I (I < 10%)

CN[C@@H](C)C(=O)N[C@H]1CCS[C@H]2CC(C)(C)[C@@H](C(=O)N[C@H]3c4ccccc4C[C@H]3OCc3ccc(CO[C@@H]4Cc5ccccc5[C@@H]4NC(=O)[C@H]4N5C(=O)[C@@H](NC(=O)[C@H](C)NC)CCS[C@H]5CC4(C)C)cc3)N2C1=O [Compound 18g, (2S)-1-{[(4S,7S,9aS)-7-{[(1S,2R)-2-{[4-({[(1S,2R)-1-({[(4S,7S,9aS)-8,8-Dimethyl-4-{[(2S)-2-(methylammonio)propanoyl]amino}-5-oxooctahydropyrrolo[2,1-b][1,3]thiazepin-7-yl]carbonyl}amino)-2,3-dihydro-1H-inden-2-yl]oxy}methyl)benzyl]oxy}-2,3-dihydro-1H-inden-1-yl]carbamoyl}-8,8-dimethyl-5-oxooctahydropyrrolo[2,1-b][1,3]thiazepin-4-yl]amino}-N-methyl-1-oxopropan-2-ammonium dichloride]
EC50 [1]: 1 to 10 nM
IC50 (SKOV-3): < 10 nM
IC50 (NB-4): < 10 nM
concentration at 1 h [2]: 2.69 µM
IC50 (MOLM 13): 10 to 100 nM
Ki (BIR3 domain of XIAP): ≤ 50 nM
Ki (ML-IAP): 50 to 100 nM
Ki (BIR3 domain of cIAP2): 50 to 100 nM
Ki (BIR3 domain of cIAP1): ≤ 50 nM
IC50 (AML-SH-065): 10 to 100 nM
AML-SH-065 Efficacy (AML-SH-065): I (I < 10%)
IC50 (AML-SH-074): 100 to 1000 nM
AML-SH-074 Efficacy (AML-SH-074): I (I < 10%)
IC50 (AML-SH-075): 10 to 100 nM
AML-SH-075 Efficacy (AML-SH-075): I (I < 10%)

CC[C@H](NC)C(=O)N[C@H]1CCS[C@H]2CC(C)(C)[C@@H](C(=O)N[C@H]3c4ccccc4C[C@H]3OCC#CC#CCO[C@@H]3Cc4ccccc4[C@@H]3NC(=O)[C@H]3N4C(=O)[C@@H](NC(=O)[C@H](CC)NC)CCS[C@H]4CC3(C)C)N2C1=O [Compound 18m, [(1S)-1-{[(4S,7S,9aS)-7-{[(1S,2R)-2-[(6-{[(1S,2R)-1-[(4S,7S,9aS)-8,8-Dimethyl-4-[(2S)-2-(methylazaniumyl)butanamido]-5-oxo-octahydropyrrolo[2,1-b][1,3]thiazepine-7-amido]-2,3-dihydro-1H-inden-2-yl]oxy}hexa-2,4-diyn-1-yl)oxy]-2,3-dihydro-1H-inden-1-yl]carbamoyl}-8,8-dimethyl-5-oxo-octahydropyrrolo[2,1-b][1,3]thiazepin-4-yl]carbamoyl}propyl](methyl)azanium dichloride]
EC50 [1]: 1 to 10 nM
IC50 (SKOV-3): < 10 nM
concentration at 1 h [2]: 6.59 µM
AUC(0-t) [3]: 18.1 µM·h
Cmax [3]: 6.6 µM
Tmax [3]: 1 h
half-life ([3]; terminal half-life): 3 h
IC50 (MOLM 13): 10 to 100 nM
Ki (BIR3 domain of XIAP): ≤ 50 nM
Ki (ML-IAP): 50 to 100 nM
Ki (BIR3 domain of cIAP2): 50 to 100 nM
Ki (BIR3 domain of cIAP1): ≤ 50 nM
IC50 (AML-SH-065): < 10 nM
AML-SH-065 Efficacy (AML-SH-065): I (I < 10%)
IC50 (AML-SH-074): 100 to 1000 nM
AML-SH-074 Efficacy (AML-SH-074): I (I < 10%)
IC50 (AML-SH-075): 10 to 100 nM
AML-SH-075 Efficacy (AML-SH-075): I (I < 10%)
